From US7648974B1, “19-nor-vitamin D analogs with 3,2-dihydrofuran ring” (Wisconsin Alumni Research Foundation, priority 2008, dated 2010)
Entries after “also recorded” stand apart in the source; their conditions may differ.

Assays:
[1] = tested on: Human promyelocytic leukemia (HL60) cells; test: HL-60 differentiation (nitro blue tetrazolium reduction); format: cell-based; settings: for EC50: Homo sapiens, HL-60, HL60 cells, FIG. 2
Procedure: Serial dilutions were prepared so that a range of drug concentrations could be tested without changing the final concentration of ethanol (≦0.2%) present in the cell cultures.
Human promyelocytic leukemia (HL60) cells were grown in RPMI-1640 medium containing 10% fetal bovine serum. The cells were incubated at 37° C. in the presence of 5% CO2.
HL60 cells were plated at 1.2×10^5 cells/ml. Eighteen hours after plating, cells in duplicate were treated with drug. Four days later, the cells were harvested and a nitro blue tetrazolium reduction assay was performed (Collins et al., 1979; J. Exp. Med. 149:969-974). The percentage of differentiated cells was determined by counting a total of 200 cells and recording the number that contained intracellular black-blue formazan deposits. Verification of differentiation to monocytic cells was determined by measuring phagocytic activity (data not shown).

[2] = tested on: 24-hydroxylase (24Ohase) gene promoter; test: In vitro transcription assay, luciferase reporter in ROS 17/2.8 (bone) cells; format: cell-based; settings: ROS 17/2.8 cells, 24-hydroxylase promoter luciferase; FIG. 3; read-out: EC50, transcriptional activity in bone cells
Procedure: In Vitro Transcription Assay
Transcription activity was measured in ROS 17/2.8 (bone) cells that were stably transfected with a 24-hydroxylase (24Ohase) gene promoter upstream of a luciferase reporter gene (Arbour et al., 1998). Cells were given a range of doses. Sixteen hours after dosing the cells were harvested and luciferase activities were measured using a luminometer.
RLU=relative luciferase units.

Sprague-Dawley rats [3] = test: Bone calcium mobilization (serum calcium); format: in vivo; settings: FIG. 4; for serum calcium value: 7,020 pmol/day for 4 consecutive days, ip, low calcium diet (0.02%)
Procedure: (§1) Intestinal Calcium Transport and Bone Calcium Mobilization
(§2) Male, weanling Sprague-Dawley rats were placed on Diet 11 (0.47% Ca) diet+AEK oil for one week followed by Diet 11 (0.02% Ca)+AEK oil for 3 weeks. The rats were then switched to a diet containing 0.47% Ca for one week followed by two weeks on a diet containing 0.02% Ca. Dose administration began during the last week on 0.02% calcium diet. Four consecutive ip doses were given approximately 24 hours apart. Twenty-four hours after the last dose, blood was collected from the severed neck and the concentration of serum calcium determined as a measure of bone calcium mobilization. The first 10 cm of the intestine was also collected for intestinal calcium transport analysis using the everted gut sac method.

[4] = biological target: T1, full-length recombinant rat vitamin D receptor (Rattus norvegicus, UniProt P13053)
T1 sequence (P13053 1-423): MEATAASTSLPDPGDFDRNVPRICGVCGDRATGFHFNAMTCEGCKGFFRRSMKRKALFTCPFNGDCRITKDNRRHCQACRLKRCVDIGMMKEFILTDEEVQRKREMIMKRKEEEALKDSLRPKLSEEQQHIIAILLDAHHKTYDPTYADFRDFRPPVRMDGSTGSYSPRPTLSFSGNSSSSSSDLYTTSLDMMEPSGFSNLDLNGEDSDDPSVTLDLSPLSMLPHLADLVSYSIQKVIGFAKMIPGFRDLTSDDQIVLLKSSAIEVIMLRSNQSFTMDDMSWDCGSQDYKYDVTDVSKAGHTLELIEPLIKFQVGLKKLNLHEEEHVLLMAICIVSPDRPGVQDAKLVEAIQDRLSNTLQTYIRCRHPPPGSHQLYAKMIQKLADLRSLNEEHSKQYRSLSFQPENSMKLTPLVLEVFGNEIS
Excerpt: Vitamin D Receptor Binding
Full-length recombinant rat receptor was expressed in E. coli BL21 (DE3) Codon Plus RIL cells and purified to homogeneity using two different column chromatography systems. The first system was a nickel affinity resin that utilizes the C-terminal histidine tag on this protein. The protein that was eluted from this resin was further purified using ion exchange chromatography (S-Sepharose Fast Flow). Aliquots of the purified protein were quick frozen in liquid nitrogen and stored at −80° C. until use. For use in binding assays, the protein was diluted in TEDK50 (50 mM Tris, 1.5 mM EDTA, pH7.4, 5 mM DTT, 150 mM KCl) with 0.1% Chaps detergent.
Radiolabeled and unlabeled ligands were added to 100 mcl of the diluted protein at a final ethanol concentration of ≦10%, mixed and incubated overnight on ice to reach binding equilibrium. The following day, 100 mcl of hydroxylapatite slurry (50%) was added to each tube and mixed at 10-minute intervals for 30 minutes. The hydroxylapaptite was collected by centrifugation and then washed three times with Tris-EDTA buffer (50 mM Tris, 1.5 mM EDTA, pH 7.4) containing 0.5% Titron X-100. After the final wash, the pellets were transferred to scintillation vials containing 4 ml of Biosafe II scintillation cocktail, mixed and placed in a scintillation counter. Total binding was determined from the tubes containing only radiolabeled ligand.

Sprague-Dawley rats [5] = test: Intestinal calcium transport (everted gut sac method); format: in vivo; settings: FIG. 5
Procedure: as §1, §2

Ki [4] [µM]	VDR affinity, less potent than 1,25-(OH)2D3 ([4]; relative to 1,25-(OH)2D3) [times]	VDR binding diminished as compared to 1α,25-dihydroxyvitamin D3 ([4]; relative to 1α,25-dihydroxyvitamin D3) [fold]	VDR binding affinity lower than the native hormone ([4]; relative to the native hormone)	SMILES	EC50 [1] [µM]	EC50 [2] [µM]	serum calcium value (Sprague-Dawley rats [3]) [mg/dL]	bone calcium mobilization activity (in words) (Sprague-Dawley rats [3]; in vivo, doses tested)	HL-60 cell differentiation, less active/potent than 1,25(OH)2D3 ([1]; relative to 1,25(OH)2D3)	potency to promote HL60 cell differentiation, less than calcitriol ([1]; relative to calcitriol) [logs]	intestinal calcium transport activity (in words) (Sprague-Dawley rats [5]; 780 pmol/day for 4 consecutive days)	intestinal calcium transport activity in vivo (in words) (Sprague-Dawley rats [5]; in vivo, compared to 1,25-(OH)2D3)
–	–	–	–	C=C1/C(=C\C=C2/CCC[C@]3(C)[C@@H]([C@H](C)CCCC(C)(C)O)CC[C@@H]23)C[C@@H](O)C[C@@H]1O [1,25-(OH)2D3, 1α,25-dihydroxyvitamin D3, reference compound]	0.003	0.0002	7.9	increased serum calcium levels at all the dosages tested	–	–	–	–
0.8	~40	~10	approximately 4 orders of magnitude	C[C@H](CCCC(C)(C)O)C1CCC2/C(=C/C=C3\C[C@@H](O)C4=CCO[C@@H]4C3)CCC[C@@]21C (stereo partly drawn) [B-REV5, 3,2-dihydrofuran-1α,25-dihydroxy-19-nor-vitamin D3]	1	0.3	6.1	–	about 1,000 times	3	almost the same activity as 1,25-(OH)2D3	significant intestinal calcium transport activity; also recorded: about the same potency
